From patent US7572454B2, “T helper cell epitopes” (priority 1999, dated 2009) come the findings set out here.

Assay [1] deals with LHRH. The assay can be described thus: Trial K9-5: antibody response to LHRH by ELISA. Type of assay: in vivo, dog. On the technique in general: ELISA stands for enzyme-linked immunosorbent assay.
Assay [2] relates to LHRH. The assay can be described thus: Trial in BALB/c mice: antibody response to LHRH by ELISA. The format is in vivo. The settings on record: for antibody titres to LHRH: BALB/c mice. How it is done:
The canine vaccines with CDV-F derived Th-epitopes and LHRH used in Example 3 were also used to immunise BALB/c mice to investigate if the Th-epitopes would be functional in a different animal species.
All vaccines were formulated as for Example 3 except that they were diluted further so that 100 μl doses contained 2.7 nmoles of peptide and 10 μg of Iscomatrix™ and thiomersol as preservative.
Mice were vaccinated with 100 μl of the vaccine at the base of tail. Vaccinations were given at 0 and 4 weeks and animals bled at intervals after each vaccination from the retro-orbital plexus. Effective T-cell help was determined by measuring the antibody response to LHRH by ELISA.

Assay [3] relates to LHRH. The assay can be described thus: Trial K9-8: antibody response to LHRH by ELISA. The format is in vivo, dog. To be noted: Trial K9-8; T-cell-LHRH constructs named by their T-cell epitope. The protocol:
A total of 35 dogs mixed sex were used in this trial. All had been previously vaccinated with a live CDV vaccine but had not been vaccinated against LHRH.
The T-Helper epitopes were linked to a truncated form of LHRH, containing amino acids 2 to 10 of the native 10 amino acid sequence, as shown below:
All vaccines were formulated as for Example 2, ie each 1 mL dose of vaccine contained 40nmoles of peptide, 150 μg Iscomatrix™, and thiomersal as preservative.
Where dogs were vaccinated with a pool of peptides, the concentration of each peptide was adjusted to give equal concentrations and a total amount of 40 nmoles of LHRH epitope per 1 mL dose.
All dogs were vaccinated with a 1 mL dose, delivered in the scruff of the neck. Vaccinations were given at 0 and 4 weeks and venous blood samples were obtained at intervals during the trial.
Effective T-cell help was determined by measuring the antibody response to LHRH by ELISA. Biological effectiveness of the peptide based vaccine was determined by measuring the levels of progesterone in female dogs and testosterone in male dogs.

For assay [4], the system named is PBMCs from dogs immunised with CDV. The assay can be described thus: T-cell proliferation after in vitro stimulation of PBMC with peptide pools, tested with autologous APCs and single peptides. The settings on record: for reaction with peripheral blood mononuclear cells: dogs of various breeds immunised with CDV. The format is cell-based, dog. The protocol: An alternate strategy was used to increase the precursor frequency of specific T cells recognising the CDV peptides. Fresh PBMCs obtained from these hyperimmunised dogs were subjected to stimulation in vitro with pools of all 94 peptides for 30 minutes at 37° C. The cells were then washed to remove any excess peptides and cultured for 7 days. This population of T cells was then tested with autologous APCs with every single peptide as the antigen.
To confirm this observation, the same four dogs were bled again, five weeks after receiving the dose of killed virus. The PBMCs were stimulated in vitro with pools of either all 94 peptides or peptides 21-40 (because most of the activity was in this region) and after 7 days of culture the stimulated T cells were tested against individual peptides. Significant stimulatory indices were obtained with all peptides, confirming the above results. Four more dogs which received only one dose of 3 in 1 vaccine were tested using the in vitro stimulation method and all four dogs responded to the majority of peptides shown in Table 2.
Once again the same peptides and one additional peptide P32 were tested on cells from additional dogs.

The mark [5] stands for this setting: Table 1, Beagle Foxhound (Dog #18), hyperimmunised, PBMC stimulated with pool of all 94 peptides, 7 days culture.
The mark [6] stands for this setting: Table 1, Beagle Foxhound (Dog #19).
[7] abbreviates: Table 1, Beagle Foxhound (Dog #20).
The mark [8] stands for this setting: Table 1, Beagle Foxhound (Dog #21).
[9] abbreviates: Table 2, Beagle Foxhound (Dog #71), one dose of 3 in 1 vaccine.
The mark [10] stands for this setting: Table 3, Kelpie Foxhound (Dog #125).

Marks after values point to notes of the source that are not given here. Ends that are not written are not given here. Where only a bound is given, the exact number is not on record here.

In the case of “ALNNRFQIKGVELKS-(NANP)3 (ALNNRFQIKGVELKSNANPNANPNANP; synthetic control peptide)”, in the assay with LHRH [1] (group average), the “Anti LHRH Titres, 2 wks post boost, Average” value was determined as 1978; the “Anti LHRH Titres, 6 wks post boost, Average” value worked out at 1941; the “Anti LHRH Titres, Prebleeds, Average” value is recorded as 1794. Besides, in the assay on LHRH [1] (group range), the “Anti LHRH Titres, 2 wks post boost, Range” value is on record as 1975-1982; the “Anti LHRH Titres, 6 wks post boost, Range” value is 1936-1947; the “Anti LHRH Titres, Prebleeds, Range” value is recorded as 1258-2559.
In the case of “P8-LHRH: T-helper epitope P8 linked to truncated LHRH, amino acids 2 to 10 (SEQ ID NO: 29) (HWSYGLRPG; not fully specified (N-terminus); ends and bridges not checked; also: linked to T-helper epitope P8; listed as Homo sapiens) [Peptide P8-LHRH]”, the Anti-LHRH antibody titre with LHRH [2] (2 weeks post second vaccination, Mouse 1) is given as <100; in the assay with LHRH [2] (2 weeks post second vaccination, Mouse 2) it was <100; in the assay on LHRH [2] (2 weeks post second vaccination, Mouse 3), <100; in the assay with LHRH [2] (2 weeks post second vaccination, Mouse 4) it was <100; with LHRH [2] (4 weeks post first vaccination, Mouse 1, 2.7 nmoles peptide, base of tail) it was <100; in the assay with LHRH [2] (4 weeks post first vaccination, Mouse 2), <100. Moreover, the Anti-LHRH antibody titre in the assay with LHRH [2] (4 weeks post first vaccination, Mouse 3) was <100; in the assay with LHRH [2] (4 weeks post first vaccination, Mouse 4), <100. Besides, in the assay on LHRH [3], the “antibody responses to LHRH” value is listed as “Low to undetectable antibody responses”.
In the case of “PRTSDRPVSYTMNRTRS (canine distemper virus; synthetic peptide from canine distemper virus fusion protein (CDV-F) designated peptide P8)”, the Stimulatory index is 2.2 in assay [4] (Table 2, Beagle Foxhound (Dog #70), one dose of 3 in 1 vaccine); 2 in assay [4] (Table 5, Border Collie); <2 in assay [4] (Table 5, Fox Terrier); 2 in assay [4] (Table 5, Grey hound); 2.8 in assay [4] (Table 5, Kelpie Pointer); 100 in assay [4] (Table 5, Poodle Shitzu). The Stimulatory index in assay [4] (Table 5, Terrier Cross) is <2. In the assay on LHRH [2], the “antibody titres to LHRH” value is “undetectable levels”.
In the case of “PRYIATNGYLISNFDES (canine distemper virus; synthetic peptide from canine distemper virus fusion protein (CDV-F) designated peptide P62)”, the Stimulatory index in assay [4] (setting [5]) was <2; in assay [4] (setting [6]), 51; in assay [4] (setting [7]), 5.6; in assay [4] (setting [8]) it was 4.2; in assay [4] (setting [9]), 3; in assay [4] (setting [10]) it was 2.4. For the same substance, the Stimulatory index is <2 in assay [4] (Table 5, Border Collie); <2 in assay [4] (Table 5, Fox Terrier); <2 in assay [4] (Table 5, Grey hound); <2 in assay [4] (Table 5, Kelpie Pointer); 24 in assay [4] (Table 5, Poodle Shitzu); <2 in assay [4] (Table 5, Terrier Cross). In addition, the “antibody titres to LHRH” value in the assay with LHRH [2] is “undetectable levels”. Besides, in the assay with LHRH [3], the “antibody responses to LHRH” value was “Strong antibody responses”.
Regarding “SHQYLVIKLIPNASLIE (canine distemper virus; synthetic peptide from canine distemper virus fusion protein (CDV-F) designated peptide P24)”, the Stimulatory index in assay [4] (setting [5]) was 5.8; in assay [4] (setting [6]), 9.9; in assay [4] (setting [7]), 2.8; in assay [4] (setting [8]), 29; in assay [4] (setting [9]), 3.2; in assay [4] (Table 2, Beagle Foxhound (Dog #72), one dose of 3 in 1 vaccine), 2.2.
Turning to “SPDKLLTFIASDTCPLV (canine distemper virus; synthetic peptide from canine distemper virus fusion protein (CDV-F) designated peptide P75)”, the Stimulatory index in assay [4] (Table 4, Beagle Foxhound #18) was 2.5; in assay [4] (Table 4, Beagle Foxhound #21), 7.2; in assay [4] (Table 4, Poodle Shitzu) it was 10; in assay [4] (Table 5, Border Collie), <2; in assay [4] (Table 5, Fox Terrier) it was <2; in assay [4] (Table 5, Grey hound), <2. Besides, the Stimulatory index is recorded as <2 in assay [4] (Table 5, Kelpie Pointer); 10 in assay [4] (Table 5, Poodle Shitzu); <2 in assay [4] (Table 5, Terrier Cross). The “reaction with peripheral blood mononuclear cells” value in assay [4] was “react strongly”. Further, the “antibody titres to LHRH” value with LHRH [2] was “low antibody titres”. In addition, in the assay with LHRH [3], the “antibody responses to LHRH” value was “Strong antibody responses”.
In the case of “SSKTQTHTQQDRPPQPS (canine distemper virus; synthetic peptide from canine distemper virus fusion protein (CDV-F) designated peptide P2)”, the Stimulatory index in assay [4] (setting [5]) is 2*; in assay [4] (setting [6]), <2; in assay [4] (setting [7]), 8; in assay [4] (setting [8]), 3.9; in assay [4] (Table 5, Border Collie), 2; in assay [4] (Table 5, Fox Terrier) it was <2. The Stimulatory index in assay [4] (Table 5, Grey hound) was <2; in assay [4] (Table 5, Kelpie Pointer) it was 2.6; in assay [4] (Table 5, Poodle Shitzu), 140; in assay [4] (Table 5, Terrier Cross) it was <2. In addition, the “antibody titres to LHRH” value in the assay on LHRH [2] is listed as “undetectable levels”. Moreover, the “antibody responses to LHRH” value with LHRH [3] is “Low to undetectable antibody responses”.
Consider “TELLSIFGPSLRDPISA (canine distemper virus; synthetic peptide from canine distemper virus fusion protein (CDV-F) designated peptide P47)”, for which the Stimulatory index in assay [4] (setting [5]) came out at 3.3; in assay [4] (setting [6]), 85.7; in assay [4] (setting [7]), 2.9; in assay [4] (setting [8]) it was 1.9; in assay [4] (setting [10]), 2.7.
For the substance “TRSRKQTSHRLKNIPVH (canine distemper virus; synthetic peptide from canine distemper virus fusion protein (CDV-F) designated peptide P10)”, the Stimulatory index in assay [4] (setting [5]) is 2.3; in assay [4] (setting [6]), <2; in assay [4] (setting [7]), 3.2; in assay [4] (setting [8]) it was 9.1; in assay [4] (Table 5, Border Collie) it was 3; in assay [4] (Table 5, Fox Terrier), 2.2. The Stimulatory index in assay [4] (Table 5, Grey hound) stood at 2; in assay [4] (Table 5, Kelpie Pointer), 2.4; in assay [4] (Table 5, Poodle Shitzu), 50; in assay [4] (Table 5, Terrier Cross), 2.1.
As for “TSTIINQSPDKLLTFIA (canine distemper virus; synthetic peptide from canine distemper virus fusion protein (CDV-F) designated peptide P74)”, the Stimulatory index is reported as 1.7 in assay [4] (Table 4, Beagle Foxhound #20); 6.0 in assay [4] (Table 4, Beagle Foxhound #21); 4.0 in assay [4] (Table 4, Poodle Shitzu); <2 in assay [4] (Table 5, Border Collie); <2 in assay [4] (Table 5, Fox Terrier); <2 in assay [4] (Table 5, Grey hound). The Stimulatory index is given as <2 in assay [4] (Table 5, Kelpie Pointer); 4 in assay [4] (Table 5, Poodle Shitzu); <2 in assay [4] (Table 5, Terrier Cross). For the same substance, the “reaction with peripheral blood mononuclear cells” value in assay [4] was “react strongly”.
Regarding “YKIMTRPSHQYLVIKLI (canine distemper virus; synthetic peptide from canine distemper virus fusion protein (CDV-F) designated peptide P23)”, in assay [4] (setting [10]), the Stimulatory index came to 3.2.
